Data taken from ChEMBL document CHEMBL1127693, “Novel isoxazoles which interact with brain cholinergic channel receptors have intrinsic cognitive enhancing and anxiolytic activities” (J Med Chem, 1994).

What was measured:
[1] = biological target: Muscarinic acetylcholine receptor (Rattus norvegicus); assay: Binding affinity at muscarinic receptor was determined by displacement of [3H]OXO-M from rat brain
[2] = Binding affinity at CCR was determined by displacement of [125I]- alpha-BgT from Torpedo californica electroplax; design: species or system Tetronarce californica
[3] = Binding affinity at CCR was determined by displacement of [125I]- alpha-BgT from rat brain; format: tissue-based
[4] = Binding affinity at CCR was determined by displacement of [3H]cytisine from rat brain; format: tissue-based
[5] = Binding affinity at CCR was determined by displacement of [3H]nicotine from rat brain; format: tissue-based

| SMILES | Ki [1] | Ki [2] | Ki [3] | Ki [4] | Ki [5] |
| --- | --- | --- | --- | --- | --- |
| Cc1cc([C@@H]2CCCN2)on1 | > 20000 nM | > 20000 nM | > 20000 nM | 333 nM |  |
| c1cncc([C@H]2CCCN2)c1 |  | 300 nM |  |  | 41 nM |
| Cc1cc([C@H]2CCCN2C)on1 |  |  |  | 44 nM |  |
| Cc1cc([C@H]2CCCN2)on1 | 8000 nM | 3400 nM | > 20000 nM | 7.4 nM |  |
| CN1CCC[C@H]1c1cccnc1 [NICOTINE] |  |  |  |  | 1.4 nM |
| c1cncc([C@@H]2CCCN2)c1 [NORNICOTINE] |  | 11000 nM |  |  | 56 nM |
| CN1CCC[C@@H]1c1cccnc1 [R-NICOTINE] |  |  |  |  | 32 nM |
